From patent publication US9029404B2, “Apoptosis-inducing agents for the treatment of cancer and immune and autoimmune diseases” (AbbVie Inc., priority 2008, dated 2015)

Target: GST-Bcl-2 (Homo sapiens, UniProt P10415)
Experiment: Time Resolved-Fluorescence Resonance Energy Transfer (TR-FRET) Bcl-2 binding assay
Conditions: competition with F-Bak peptide probe (100 nM); GST-Bcl-2 1 nM; Tb-anti-GST 1 nM; 3 hours at room temperature; Wang's equation
Method: Determination of the utility of compounds having Formula (I) as binders to and inhibitors of anti-apoptotic Bcl-2 proteins was performed using the Time Resolved-Fluorescence Resonance Energy Transfer (TR-FRET) Assay. Tb-anti-GST antibody was purchased from Invitrogen (Catalog No. PV4216).
(§1) Representative compounds were serially diluted in dimethyl sulfoxide (DMSO) starting at 50 μM (2× starting concentration; 10% DMSO) and 10 μL were transferred into a 384-well plate. The samples are then mixed on a shaker for 1 minute and incubated for an additional 3 hours at room temperature. For each assay, the probe/antibody and protein/probe/antibody were included on each assay plate as negative and positive controls, respectively. Fluorescence was measured on the Envision (Perkin Elmer) using a 340/35 nm excitation filter and 520/525 (F-Bak peptide) and 495/510 nm (Tb-labeled anti-Histidine antibody) emission filters.
as §1, with “The” for “Representative compounds were serially diluted in dimethyl sulfoxide (DMSO) starting at 50 μM (2× starting concentration; 10% DMSO) and 10 μL were transferred into a 384-well plate. The”, “were” for “are”
The inhibition constant (Ki) is the dissociation constant of an enzyme-inhibitor complex or a protein/small molecule complex, wherein the small molecule is inhibiting binding of one protein to another protein. So a large Ki value indicates a low binding affinity and a small Ki value indicates a high binding affinity.

Chain of GST-Bcl-2 (P10415 whole entry): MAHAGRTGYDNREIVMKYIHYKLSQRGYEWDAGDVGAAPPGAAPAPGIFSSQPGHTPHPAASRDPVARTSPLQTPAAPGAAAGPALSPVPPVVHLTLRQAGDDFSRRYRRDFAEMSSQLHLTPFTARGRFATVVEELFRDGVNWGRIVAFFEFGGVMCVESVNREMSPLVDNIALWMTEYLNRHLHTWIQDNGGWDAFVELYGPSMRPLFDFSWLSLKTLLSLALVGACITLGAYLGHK

Structure (SMILES) | Ki [pM]
CC1(C)CCC(CN2CCN(c3ccc(C(=O)NS(=O)(=O)c4ccc(OCC5(F)CCN(C6COC6)CC5)c([N+](=O)[O-])c4)c(Oc4cnc(N)c(Cl)c4)c3)CC2)=C(c2ccc(Cl)cc2)C1 [Example 432, 2-[(6-amino-5-chloropyridin-3-yl)oxy]-4-(4-{[2-(4-chlorophenyl)-4,4-dimethylcyclohex-1-en-1-yl]methyl}piperazin-1-yl)-N-[(4-{[4-fluoro-1-(oxetan-3-yl)piperidin-4-yl]methoxy}-3-nitrophenyl)sulfonyl]benzamide] | < 10
CC1(C)CCC(CN2CCN(c3ccc(C(=O)NS(=O)(=O)c4cnc(OCC5CCC(C)(O)CC5)c(Cl)c4)c(Oc4cccc5[nH]nc(Cl)c45)c3)CC2)=C(c2ccc(Cl)cc2)C1 (stereo not drawn) [Example 446, N-({5-chloro-6-[(trans-4-hydroxy-4-methylcyclohexyl)methoxy]pyridin-3-yl}sulfonyl)-2-[(3-chloro-1H-indazol-4-yl)oxy]-4-(4-{[2-(4-chlorophenyl)-4,4-dimethylcyclohex-1-en-1-yl]methyl}piperazin-1-yl)benzamide] | 15
CCC1(O)CCC(CNc2ccc(S(=O)(=O)NC(=O)c3ccc(N4CCN(CC5=C(c6ccc(Cl)cc6)CC(C)(C)CC5)CC4)cc3Oc3cnc(N)c(Cl)c3)cc2[N+](=O)[O-])CC1 (stereo not drawn) [Example 447, 2-[(6-amino-5-chloropyridin-3-yl)oxy]-4-(4-{[2-(4-chlorophenyl)-4,4-dimethylcyclohex-1-en-1-yl]methyl}piperazin-1-yl)-N-[(4-{[(cis-4-ethyl-4-hydroxycyclohexyl)methyl]amino}-3-nitrophenyl)sulfonyl]benzamide] | 29
CC1(C)CCC(CN2CCN(c3ccc(C(=O)NS(=O)(=O)c4cnc(OCC5(F)CCOCC5)c(Cl)c4)c(Oc4cccc5[nH]nc(N)c45)c3)CC2)=C(c2ccc(Cl)cc2)C1 [Example 430, 2-[(3-amino-1H-indazol-4-yl)oxy]-N-({5-chloro-6-[(4-fluorotetrahydro-2H-pyran-4-yl)methoxy]pyridin-3-yl}sulfonyl)-4-(4-{[2-(4-chlorophenyl)-4,4-dimethylcyclohex-1-en-1-yl]methyl}piperazin-1-yl)benzamide] | < 10
CO[C@H]1CC[C@H](CNc2ccc(S(=O)(=O)NC(=O)c3ccc(N4CCN(CC5=C(c6ccc(Cl)cc6)CC(C)(C)CC5)CC4)cc3Oc3cccc4[nH]c(=O)n(C)c34)cc2[N+](=O)[O-])CC1 [Example 427, 4-(4-{[2-(4-chlorophenyl)-4,4-dimethylcyclohex-1-en-1-yl]methyl}piperazin-1-yl)-N-[(4-{[(trans-4-methoxycyclohexyl)methyl]amino}-3-nitrophenyl)sulfonyl]-2-[(3-methyl-2-oxo-2,3-dihydro-1H-benzimidazol-4-yl)oxy]benzamide] | < 10
CC1(C)CCC(CN2CCN(c3ccc(C(=O)NS(=O)(=O)c4cnc(OCC5CCC(C)(O)CC5)c(C#N)c4)c(Oc4cc(F)cc5[nH]ncc45)c3)CC2)=C(c2ccc(Cl)cc2)C1 (stereo not drawn) [Example 453, 4-(4-{[2-(4-chlorophenyl)-4,4-dimethylcyclohex-1-en-1-yl]methyl}piperazin-1-yl)-N-({5-cyano-6-[(trans-4-hydroxy-4-methylcyclohexyl)methoxy]pyridin-3-yl}sulfonyl)-2-[(6-fluoro-1H-indazol-4-yl)oxy]benzamide] | < 10
CC1(C)CCC(CN2CCN(c3ccc(C(=O)NS(=O)(=O)c4ccc(NC[C@H]5CC[C@H](C#N)CC5)c([N+](=O)[O-])c4)c(Oc4cnc(N)c(Cl)c4)c3)CC2)=C(c2ccc(Cl)cc2)C1 [Example 401, Trans-2-[(6-amino-5-chloropyridin-3-yl)oxy]-4-(4-{[2-(4-chlorophenyl)-4,4-dimethylcyclohex-1-en-1-yl]methyl}piperazin-1-yl)-N-[(4-{[(4-cyanocyclohexyl)methyl]amino}-3-nitrophenyl)sulfonyl]benzamide] | 35
CC1(C)CCC(CN2CCN(c3ccc(C(=O)NS(=O)(=O)c4cnc(OCC5(F)CCOCC5)c(Cl)c4)c(Oc4cc(F)cc5[nH]ncc45)c3)CC2)=C(c2ccc(Cl)cc2)C1 [Example 415, N-({5-chloro-6-[(4-fluorotetrahydro-2H-pyran-4-yl)methoxy]pyridin-3-yl}sulfonyl)-4-(4-{[2-(4-chlorophenyl)-4,4-dimethylcyclohex-1-en-1-yl]methyl}piperazin-1-yl)-2-[(6-fluoro-1H-indazol-4-yl)oxy]benzamide] | 13
CC1(C)CCC(CN2CCN(c3ccc(C(=O)NS(=O)(=O)c4ccc(OCC5(F)CCOCC5)c([N+](=O)[O-])c4)c(Oc4cccc5[nH]nc(N)c45)c3)CC2)=C(c2ccc(Cl)cc2)C1 [Example 429, 2-[(3-amino-1H-indazol-4-yl)oxy]-4-(4-{[2-(4-chlorophenyl)-4,4-dimethylcyclohex-1-en-1-yl]methyl}piperazin-1-yl)-N-({4-[(4-fluorotetrahydro-2H-pyran-4-yl)methoxy]-3-nitrophenyl}sulfonyl)benzamide] | < 10
CC1(C)CCC(CN2CCN(c3ccc(C(=O)NS(=O)(=O)c4cnc(OC[C@H]5CC[C@H](O)CC5)c(Cl)c4)c(Oc4ccc(F)c5[nH]ncc45)c3)CC2)=C(c2ccc(Cl)cc2)C1 [Example 419, N-({5-chloro-6-[(trans-4-hydroxycyclohexyl)methoxy]pyridin-3-yl}sulfonyl)-4-(4-{[2-(4-chlorophenyl)-4,4-dimethylcyclohex-1-en-1-yl]methyl}piperazin-1-yl)-2-[(7-fluoro-1H-indazol-4-yl)oxy]benzamide] | 12
CC1(C)CCC(CN2CCN(c3ccc(C(=O)NS(=O)(=O)c4cnc(OC[C@H]5CC[C@H](O)CC5)c(Cl)c4)c(Oc4cc(F)cc5[nH]ncc45)c3)CC2)=C(c2ccc(Cl)cc2)C1 [Example 414, N-({5-chloro-6-[(trans-4-hydroxycyclohexyl)methoxy]pyridin-3-yl}sulfonyl)-4-(4-{[2-(4-chlorophenyl)-4,4-dimethylcyclohex-1-en-1-yl]methyl}piperazin-1-yl)-2-[(6-fluoro-1H-indazol-4-yl)oxy]benzamide] | 14
Cn1c(=O)[nH]c2cccc(Oc3cc(N4CCN(CC5=C(c6ccc(Cl)cc6)CC(C)(C)CC5)CC4)ccc3C(=O)NS(=O)(=O)c3ccc(NCC4CN(C5CC5)CCO4)c([N+](=O)[O-])c3)c21 (stereo not shown) [Example 439, 4-(4-{[2-(4-chlorophenyl)-4,4-dimethylcyclohex-1-en-1-yl]methyl}piperazin-1-yl)-N-[(4-{[(4-cyclopropylmorpholin-2-yl)methyl]amino}-3-nitrophenyl)sulfonyl]-2-[(3-methyl-2-oxo-2,3-dihydro-1H-benzimidazol-4-yl)oxy]benzamide] | < 10
CC1(C)CCC(CN2CCN(c3ccc(C(=O)NS(=O)(=O)c4ccc(NCC5CCC(C)(O)CC5)c([N+](=O)[O-])c4)c(Oc4cnc(N)c(Cl)c4)c3)CC2)=C(c2ccc(Cl)cc2)C1 (stereo not drawn) [Example 434, 2-[(6-amino-5-chloropyridin-3-yl)oxy]-4-(4-{[2-(4-chlorophenyl)-4,4-dimethylcyclohex-1-en-1-yl]methyl}piperazin-1-yl)-N-[(4-{[(trans-4-hydroxy-4-methylcyclohexyl)methyl]amino}-3-nitrophenyl)sulfonyl]benzamide] | < 10
CC1(C)CCC(CN2CCN(c3ccc(C(=O)NS(=O)(=O)c4ccc(NCC5(F)CCOCC5)c([N+](=O)[O-])c4)c(Oc4ccc(F)c5[nH]ncc45)c3)CC2)=C(c2ccc(Cl)cc2)C1 [Example 423, 4-(4-{[2-(4-chlorophenyl)-4,4-dimethylcyclohex-1-en-1-yl]methyl}piperazin-1-yl)-2-[(7-fluoro-1H-indazol-4-yl)oxy]-N-[(4-{[(4-fluorotetrahydro-2H-pyran-4-yl)methyl]amino}-3-nitrophenyl)sulfonyl]benzamide] | < 10
CC1(C)CCC(CN2CCN(c3ccc(C(=O)NS(=O)(=O)c4ccc(N[C@@H]5CCN(C6COC6)C5)c([N+](=O)[O-])c4)c(Oc4cnc(N)c(Cl)c4)c3)CC2)=C(c2ccc(Cl)cc2)C1 [Example 455, 2-[(6-amino-5-chloropyridin-3-yl)oxy]-4-(4-{[2-(4-chlorophenyl)-4,4-dimethylcyclohex-1-en-1-yl]methyl}piperazin-1-yl)-N-[(3-nitro-4-{[(3R)-1-(oxetan-3-yl)pyrrolidin-3-yl]amino}phenyl)sulfonyl]benzamide] | 11
CC1(C)CCC(CN2CCN(c3ccc(C(=O)NS(=O)(=O)c4cnc(OCC5(F)CCC(C)(O)CC5)c(Cl)c4)c(Oc4cnc(N)c(Cl)c4)c3)CC2)=C(c2ccc(Cl)cc2)C1 (stereo not drawn) [Example 443, 2-[(6-amino-5-chloropyridin-3-yl)oxy]-N-({5-chloro-6-[(trans-1-fluoro-4-hydroxy-4-methylcyclohexyl)methoxy]pyridin-3-yl}sulfonyl)-4-(4-{[2-(4-chlorophenyl)-4,4-dimethylcyclohex-1-en-1-yl]methyl}piperazin-1-yl)benzamide] | 29
